Measured values as given in US12558329B2 (New York University, priority 2021, dated 2026).
“Also recorded” adds a separate entry of the source.

Test system: MIAPACA2 cells
Assay: 18O2-GASSP labelling of MIAPACA2 cells treated with MG132, IOX1, DFO or ascorbate
Format: cell-based, human
Method: As additional controls, MIAPACA2 cells were treated with an iron chelator (DFO, FIG. 5E-5F), a proteasome inhibitor (MG132) to induce proteotoxic stress, and physiological levels of ascorbate, an antioxidant, to determine the effects of ROS on ^18O-labelling. Labelling of ^18O γ-butyrobetaine was blocked by IOX1 and DFO, consistent with the fact that trimethyllysine hydroxylase (TMLH) is an iron-dependent dioxygenase (FIGS. 7A-7D). […] Total levels of ^18O labelled methionine sulfoxide increased upon MG132 treatment and decreased following ascorbate treatment (FIGS. 7I-7M)^10.
All steps involved in setting up labelling with ^18O2 were performed at room temperature and inside a chemical fume hood. The procedure may vary depending on the type and number of tissue culture plates in the chamber and the amount of media in the plates. Users must test the system by using ^16O2:CO2:N2 or other unlabelled gases to optimize conditions for their needs and avoid consumption of costly labelled gases. Cells were treated with or without 5 μM MG132, 500 μM IOX1, 250 μM DFO, or 70 μM ascorbate, before placing tissue culture plates into the modular incubator chamber (MIC) containing a wireless oxygen sensor and a 15 cm dish of water to maintain humidity. Next, the clamps were closed to form an air-tight seal between the lid and platform of the MIC. […] N2 flushing was repeated for a total of three times, or until the sensor in the chamber stabilized at 0% O2 for 10 minutes.
Next, the inlet valve was opened and the ^18O2:5% CO2:N2 gaseous mixture was flushed into the system at a rate of 2.5 L/min. Subsequently, the outlet valve was immediately opened to allow gas flow out of the chamber, and to release the pressure in the system. The chamber was injected with the ^18O2:5% CO2:N2 gaseous mixture for 1 minute before the inlet and outlet valves were closed simultaneously. The chamber was allowed to equilibrate for 5 minutes. This process was repeated seven times, or until the desired oxygen concentration was reached and was stable. For 3%, 1%, and 0.2% ^18O2 labelling studies, the chamber was infused with 5%:5%:90%, 1.5%:5%:93.5%, and 0.5%:5%:94.5% ^18O2:CO2:N2, respectively. The ^18O2-infused MIC was then placed in a 37° C., 5% CO2 tissue culture incubator for 24 hours. The oxygen concentration in the chamber was monitored regularly. Oxygen measurements after 20 hours was not feasible due to the battery life of the sensor. At the end of the experiment, the chamber was opened inside a chemical fume hood before metabolite extraction.
For metabolomics, briefly, cells were washed in 4° C. 0.9% saline and metabolites were extracted with 46% methanol:23% H2O:[…] chloroform that contained a labelled amino acid standard mix (MSK-A2-1.2, Cambridge Isotope Laboratories, Inc.). Enzymatic assay samples were extracted using 80% methanol: 20% H2O that contained labelled amino acid standards. Extracts were placed into 1.5 mL Eppendorf tubes, vortexed at 4° C. for 10 min and centrifuged at 4° C. for 10 min at 17,200×g in a microcentrifuge. The aqueous phase was transferred to vials for GC-MS or Eppendorf tubes for LC-MS. Polar samples were evaporated in a SpeedVac and samples were resolved by GC-MS or LC-MS. Lipid samples were dried using a stream of N2 (for ^18O labelling studies) or air. Metabolite and lipid extracts were submitted to the NYULMC Metabolomics Core Resource Laboratory.
For polar metabolomics, the LC column was a Millipore ZIC-pHILIC (2.1×150 […], 5 μm bead size) coupled to a Dionex UltiMate 3000 system. The column oven temperature was held at 25° C. The flow rate was 100 μL/min, and the injection volume was 1 μL. Buffer A was 10 mM ammonium carbonate in water, pH 9, and Buffer B was neat acetonitrile. The gradient profile was 80-20% B (0-30 min), 20-80% B (30-31 min), and 80-80% B (31-42 min). MS Analyses were carried out on a Thermo Q Exactive HF mass spectrometer using a heated electrospray ionization (HESI) source. […]

O=C(O)c1ccc(O)c2ncccc12 [IOX1]
18O labelling of methionine (3%, 1%, 0.2% 18O2, 24 hours): sensitive; also recorded: blocked | 18O labelling of γ-butyrobetaine (3%, 1%, 0.2% 18O2, 24 hours): sensitive; also recorded: blocked | 18O labelling of 4-HMA (MIAPACA2, 3%, 1%, 0.2% 18O2, 24 hours, 500 μM IOX1, 250 μM DFO): sensitive; also recorded: significantly attenuated | 4-HMA levels (MIAPACA2, 18O2 labelling, 24 hours, 500 μM IOX1, 250 μM DFO, 70 μM ascorbate): significantly attenuated
